In patent US5525617A, “Fibrinogen receptor antagonists” (Merck & Co., Inc., priority 1994, dated 1996):

System: gel-filtered human platelets
Experiment: in vitro ADP-stimulated platelet aggregation (inhibition)
Type: cell-based
Settings: gel-filtered human platelets 2×10^8 per ml, fibrinogen 100 micrograms per ml, Ca^2+ 1 mM, 10 mM ADP, 37° C., Chronolog aggregometer
Description: Platelet aggregation is measured at 37° C. in a Chronolog aggregometer. The reaction mixture contains gel-filtered human platelets (2×10^8 per ml), fibrinogen (100 micrograms per ml (ug/ml)), Ca^2+ (1 mM), and the compound to be tested. The aggregation is initiated by adding […] ADP 1 minute after the other components are added. The reaction is then allowed to proceed for at least 2 minutes. The extent of inhibition of aggregation is expressed as the percentage of the rate of aggregation observed in the absence of inhibitor. The IC50 is the dose of a particular compound inhibiting aggregation by 50% relative to a control lacking the compound.
In addition to the following preparative procedures, several examples of in vitro bioactivity of compounds within the scope of the present invention are indicated. To illustrate, one test which is used to evaluate fibrinogen receptor antagonist activity is based on evaluation of inhibition of ADP-stimulated platelets. Aggregation requires that fibrinogen bind to and occupy the platelet fibrinogen receptor site. Inhibitors of fibrinogen binding inhibit aggregation. In the ADP-stimulated platelet aggregation assay used to determine inhibition associated with the compounds claimed in the instant invention, human platelets are isolated from fresh blood, collected into acid citrate/dextrose by differential centrifugation followed by gel filtration on Sepharose 2B in divalent ion-free Tyrode's buffer (pH 7.4) containing 2% bovine serum albumin.

IC50 [nM]	Structure (SMILES)
2300	O=C(O)CCNC(=O)c1ccc2c(c1)C(=O)C(CCC1CCNCC1)C2 (stereo not drawn)
9	CCCCS(=O)(=O)N[C@@H](CNC(=O)c1ccc2c(c1)C(=O)C(CCC1CCNCC1)C2)C(=O)O (stereo partly drawn)
14	CCCCS(=O)(=O)N[C@@H](CNC(=O)c1ccc2c(c1)CC(CCC1CCNCC1)C2)C(=O)O (stereo partly drawn)
